{"source": "patent US7772267B2", "about": "“Bicyclic modulators of androgen receptor function” (Bristol-Myers Squibb Company, priority 2002, dated 2010)", "key": {"AR": {"target": "T1, AR (Rattus norvegicus, UniProt P15207)", "T1 sequence (P15207 1-902)": "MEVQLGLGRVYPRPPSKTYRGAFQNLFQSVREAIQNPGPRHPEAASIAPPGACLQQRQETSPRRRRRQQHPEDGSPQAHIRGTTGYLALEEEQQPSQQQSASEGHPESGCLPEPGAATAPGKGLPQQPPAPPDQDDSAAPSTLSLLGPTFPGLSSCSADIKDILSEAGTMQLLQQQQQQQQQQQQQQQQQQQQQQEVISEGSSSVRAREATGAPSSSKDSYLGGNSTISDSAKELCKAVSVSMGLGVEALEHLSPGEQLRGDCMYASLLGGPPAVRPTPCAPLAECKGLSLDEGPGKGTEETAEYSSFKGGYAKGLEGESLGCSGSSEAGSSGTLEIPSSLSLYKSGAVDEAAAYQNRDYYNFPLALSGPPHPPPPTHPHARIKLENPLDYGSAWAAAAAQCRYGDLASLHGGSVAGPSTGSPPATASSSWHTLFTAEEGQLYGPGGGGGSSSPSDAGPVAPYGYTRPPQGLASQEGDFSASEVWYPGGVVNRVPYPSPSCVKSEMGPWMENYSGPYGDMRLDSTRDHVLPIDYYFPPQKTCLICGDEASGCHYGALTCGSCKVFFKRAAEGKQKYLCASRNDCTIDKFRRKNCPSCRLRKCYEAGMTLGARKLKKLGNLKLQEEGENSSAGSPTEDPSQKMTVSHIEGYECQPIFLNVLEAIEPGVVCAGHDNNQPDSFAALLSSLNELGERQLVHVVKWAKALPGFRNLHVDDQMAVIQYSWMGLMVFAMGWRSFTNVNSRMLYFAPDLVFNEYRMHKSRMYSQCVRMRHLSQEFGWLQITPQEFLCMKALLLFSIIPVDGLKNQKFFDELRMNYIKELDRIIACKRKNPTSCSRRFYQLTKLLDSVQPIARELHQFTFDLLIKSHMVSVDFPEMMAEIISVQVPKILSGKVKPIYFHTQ", "description": "The activity of compounds of the present invention as AR agonists was investigated in an immature male rat model, a recognized test of anabolic effects in muscle and sustaining effects in sex organs for a given compound, as described in L. G. Hershberger et al., Proc. Soc. […] Biol. Med., 83, 175 (1953); B. L. Beyler et al, “Methods for evaluating anabolic and catabolic agents in laboratory animals”, J. Amer. Med. Women's Ass., 23, 708 (1968); H. Fukuda et al., “Investigations of the levator ani muscle as an anabolic steroid assay”, Nago Dai. Yak. Ken. Nem. 14, 84 (1966) the disclosures of which are herein incorporated by reference.\nThe basis of this assay lies in the well-defined action of androgenic agents on the maintenance and growth of muscle tissues and sexual accessory organs in animals and man. […] J. Anat. […] I. Quantitative data” Boll.-Soc. Ital. Biol. Sper. […] II. Electron-microscopic observations” Boll.-Soc. Ital. Biol. Sper. 42, 1600 (1966); A. Boris et al., Steroids 15, 61 (1970). As described above, the effects of androgens on maintenance of male sexual accessory organs, such as the prostate and seminal vesicles, is well described. Castration results in rapid involution and atrophy of the prostate and seminal vesicles. This effect can be reversed by exogenous addition of androgens. […]"}, "[1]": {"system": "endogenous glucocorticoid receptor (A549 cells)", "test": "In vitro assay to measure GR-induced AP-1 transrepression (luciferase reporter in A549 cells)", "format": "cell-based", "settings": "at a concentration of ≦10 µM; typical value for the positive control", "experimental": "The AP-1 assay is a cell-based luciferase reporter assay. A549 cells, which contain endogenous glucocorticoid receptor, were stably transfected with an AP-1 DNA binding site attached to the luciferase gene. Cells are then grown in RPMI+10% fetal calf serum (charcoal-treated)+Penicillin/Streptomycin with 0.5 mg/mL geneticin. Cells are plated the day before the assay at approximately 40000 cells/well. On assay day, the media is removed by aspiration and 20 μL assay buffer (RPMI without phenol red+10% FCS (charcoal-treated)+Pen/Strep) is added to each well. At this point either 20 μL assay buffer (control experiments), the compounds of the present invention (“test compounds”) (dissolved in DMSO and added at varying concentrations) or dexamethasome (100 nM in DMSO, positive control) are added to each well. The plates are then pre-incubated for 15 min at 37° C., followed by stimulation of the cells with 10 ng/mL PMA. The plates are then incubated for 7 h at 37° C. after which 40 μL luciferase substrate reagent is added to each well. Activity is measured by analysis in a luminometer as compared to control experiments treated with buffer or dexamethasome. […] The control, dexamethasone, at a concentration of ≦10 µM typically suppresses activity by 65%."}}}
{"smiles": "Cc1c(N2C[C@@H]3[C@@H](O)CCN3C2=O)ccc(C#N)c1Cl", "values": [{"measurement": "melting point", "value": "148 to 149", "unit": "°C"}]}
{"smiles": "CCC(=O)O[C@H]1CC[C@H]2[C@@H]3CCC4=CC(=O)CC[C@]4(C)[C@H]3CC[C@]12C", "note": "[TP, Testosterone Propionate]", "values": [{"measurement": "EC50 (increase in organ weight)", "setting": "AR; castrated rats, organ weight increase", "value": "~0.03", "unit": "mg"}, {"measurement": "potency relative to free T", "setting": "AR; higher potency than free T", "value": "10-30 fold"}]}
{"smiles": "C[C@@H]1C[C@H]2[C@@H]3CCC4=CC(=O)C=C[C@]4(C)[C@@]3(F)[C@@H](O)C[C@]2(C)[C@@]1(O)C(=O)CO", "note": "[dexamethasone]", "values": [{"measurement": "suppression of activity (% inhibition of the reporter system vs buffer control with 10 ng/mL PMA alone)", "setting": "[1]", "value": 65, "unit": "%"}]}
